# Where “and” joins values, the source holds several entries; their conditions need not be identical. Equal values may be shown once.
# Tests used:
# [1] = system: Human Immunodeficiency Virus; experiment: Anti-HIV testing in cell culture: inhibition of cell-to-cell transmission of HIV measured as p24 protein production; format: cell-based; conditions: for MEAN P24 value: mean of three tests; for % VIRAL CONCENTRATION: relative to 0.0 μM = 100.0; for P24 value as measurement of HIV concentration: separate efficacy tests (samples 1-3)
# Protocol: Testing was performed independently at the NIH using standard testing protocol.
# Sprague-Dawley rats = experiment: In vivo toxicity study in rats, oral administration (gavage); conditions: increasing amounts up to 2 g/kg body weight
# Description: (b) Oral Administration: Sprague-Dawley rats weighing approximately 250 g were orally gavaged with increasing amounts of polysulfate polymethylsulfate dextrin dissolved in sterile water up to a dose of 2 g/kg body weight.
substance,measurement,setting,value
polysulfate polymethylsulfate dextrin,MEAN P24 value,[1]; 0.32 μM,664.0 pg/mL
same,% VIRAL CONCENTRATION,[1]; 0.32 μM,96.1%
same,P24 value as measurement of HIV concentration,[1]; 0.32 μM,672.3 pg/mL and 654.6 pg/mL and 665.0 pg/mL
same,MEAN P24 value,[1]; 1.0 μM,371.5 pg/mL
same,% VIRAL CONCENTRATION,[1]; 1.0 μM,53.7%
same,P24 value as measurement of HIV concentration,[1]; 1.0 μM,407.1 pg/mL and 351.2 pg/mL and 356.1 pg/mL
same,MEAN P24 value,[1]; 3.2 μM,5.5 pg/mL
same,% VIRAL CONCENTRATION,[1]; 3.2 μM,0.8%
same,MEAN P24 value,[1]; 10 μM,-6.1 pg/mL
same,% VIRAL CONCENTRATION,[1]; 10 μM,−0.9%
same,MEAN P24 value,[1]; 32 μM,-8.8 pg/mL
same,% VIRAL CONCENTRATION,[1]; 32 μM,−1.3%
same,MEAN P24 value,[1]; 100 μM,-27 pg/mL
same,% VIRAL CONCENTRATION,[1]; 100 μM,−3.9%
same,IC50,"[1]; average of three separate tests, p24 production, cell-to-cell transmission of HIV, read-out: calculated 50% inhibition (IC50) / average inhibitory concentration 50%",1160 nM
same,toxic effects after oral administration,Sprague-Dawley rats,No toxic effects
